Marks after values point to notes of the source that are not given here. In the oligonucleotide strings, read from the 5' end, every base follows the letter of its sugar. An asterisk marks phosphorothioate; unmarked linkages are phosphodiester. Other units and linkages are bracketed, terminal groups are in braces. A string of capitals states the bases alone. e = 2'-O-(2-methoxyethyl) (MOE); [5mC] = 5-methylcytosine; d = 2'-deoxy (DNA)
Assays:
Type in all cases: in vivo
[1] = tested on: PC-3 Hormone-Refractory Prostate Cancer Xenograft; assay: PC-3 hormone-refractory prostate cancer xenograft tumor volume in mice; details: ASO 50 mg/kg iv; for Mean Tumor Volume: in mm³; for Percent Reduction in Mean Tumor Volumes (observed): Prostate PC3 Day 35, vs. Vehicle Control
Method: (§1) Xenograft studies are carried out as described in Graff et al. (2005) Cancer Res. 65:7462-7469. Five million human cancer cells representing non-small cell lung cancer (line A549; ATCC, accession no. CCL-185), hormone refractory prostate cancer (line PC-3; ATCC, accession no. CRL-1435), and ER-/PR-HER2-breast cancer (line MDA-231; ATCC, accession no. HTB-26) are injected subcutaneously in the flank of 6-8 week old, athymic nude mice (Harlan, Indianapolis, Ind.) in a 1:1 mixture of serum-free growth medium and matrigel (Becton Dickinson, Bedford, Mass., catalogue #354234). Mice are monitored daily for palpable tumors.
(§2) When tumor volumes reach ˜50-100 mm^3, mice are randomized to treatment groups (Graff et al. (2007) J. Clin. Invest. 117:2638-48). Body weight is monitored each time tumors are measured.
(§3) For treatment, all mice are injected intravenously with the eIF-4E ASO in saline in a total volume of 200 μl. The ASO consists of the nucleotide sequence 5′-[…]-3′ (SEQ ID NO:1), in which every internucleoside linkage is a phosphorothioate linkage, nucleotides 1-5 and 16-20 reading from the 5′ end to the 3′ end each comprise a 2′-O-(2-methoxyethyl) sugar, nucleotides 6-15 are 2′-deoxynucleotides, every cytosine residue is a 5-methylcytosine, and which is in the form of a sodium salt. The mice are first injected with an initial loading dose of 50 mg/kg ASO for 3 consecutive days, followed by 50 mg/kg thrice weekly thereafter.
(§4) Taxotere® (docetaxel) dosing begins 8 days after the first ASO dose to allow time for reduction of eIF-4E protein expression. Mice are dosed with 2.5 or 10 mg/kg Taxotere® (Sanofi-Aventis) intraperitoneally (IP) in 1% ethanol in 5% dextrose water in a volume of 200 μl once weekly for 3 weeks.
(§5) Tumor volumes are calculated measuring the largest (L) and smallest (W) diameters with a caliper. The formula is: Volume=L×W^2×0.534. Tumor volume data are transformed to a log scale to equalize variance across time and treatment groups. The log volume data are analyzed with a two-way repeated measures analysis of variance by time and treatment using SAS PROC MIXED software (SAS Institute Inc, Cary, N.C.) using the spatial power covariance structure. Treatment groups are compared to the control group at each time point and overall. The data may be plotted as means and standard errors for each treatment group versus time. Additivity is assessed in two ways: (1) as an overall interaction effect between the ASO and Taxotere® in the repeated measures analysis, and (2) by using the Bliss Independence method on the final day of the study (C.I. Bliss (1939) Ann. Appl. Biol. 26:585-615). These two methods yield the same results.
(§6) The observed percent reductions in mean tumor volume at the conclusion of each study resulting from the various treatments are shown in Table 4. These are calculated as: […]
(§7) The “Expected if Additive” percent reductions in mean tumor volume shown in Table 4 are calculated using the Bliss Independence definition of additivity, as follows: […]

[2] = tested on: A549 Non-Small Cell Lung Cancer Xenograft; assay: A549 non-small cell lung cancer xenograft tumor volume in mice; parameters: key to Mean Tumor Volume: tumor volume in mm^3; details: ASO 50 mg/kg iv; for Mean Tumor Volume: in mm³; for Percent Reduction in Mean Tumor Volumes (observed): NSCLC A 549 Day 50, vs. Vehicle Control, Taxotere 10 mg/kg IP
Method: as §1, §2, §3, §4, §5, §6, §7

[3] = tested on: MDA-231 Breast Cancer Xenograft; assay: MDA-231 breast cancer xenograft tumor volume in mice; details: for Percent Reduction in Mean Tumor Volumes (observed): Breast MDA-231 Day 33, vs. Vehicle Control; for Percent Reduction in Mean Tumor Volumes (observed) / Mean Tumor Volume: ASO 50 mg/kg iv; for Mean Tumor Volume: in mm³
Method: as §1, §2, §3, §4, §5, §6, §7

[4] = Day 7, Taxotere 10 mg/kg IP once weekly from 8 days after first ASO dose, tumor volumes in mm^3
[5] = Day 7, docetaxel 10 mg/kg IP once weekly from 8 days after first ASO dose, tumor volumes in mm^3
[6] = Day 5, Taxotere 2.5 mg/kg IP once weekly from 8 days after first ASO dose, tumor volumes in mm^3

| Molecule | Mean Tumor Volume [1, 4] | Mean Tumor Volume ([1]; Day 12, Taxotere 10 mg/kg IP) | Mean Tumor Volume ([1]; Day 15, Taxotere 10 mg/kg IP) | Mean Tumor Volume ([1]; Day 19, Taxotere 10 mg/kg IP) | Mean Tumor Volume ([1]; Day 22, Taxotere 10 mg/kg IP) | Mean Tumor Volume ([1]; Day 27, Taxotere 10 mg/kg IP) | Mean Tumor Volume ([1]; Day 29, Taxotere 10 mg/kg IP) | Mean Tumor Volume ([1]; Day 33, Taxotere 10 mg/kg IP) | Mean Tumor Volume ([1]; Day 35, Taxotere 10 mg/kg IP) | Percent Reduction in Mean Tumor Volumes (observed) ([1]; Taxotere 10 mg/kg IP) | Mean Tumor Volume [2, 5] | Mean Tumor Volume ([2]; Day 10, docetaxel 10 mg/kg IP) | Mean Tumor Volume ([2]; Day 15, docetaxel 10 mg/kg IP) | Mean Tumor Volume ([2]; Day 18, docetaxel 10 mg/kg IP) | Mean Tumor Volume ([2]; Day 22, docetaxel 10 mg/kg IP) | Mean Tumor Volume ([2]; Day 25, docetaxel 10 mg/kg IP) | Mean Tumor Volume ([2]; Day 29, docetaxel 10 mg/kg IP) | Mean Tumor Volume ([2]; Day 32, docetaxel 10 mg/kg IP) | Mean Tumor Volume ([2]; Day 36, docetaxel 10 mg/kg IP) | Mean Tumor Volume ([2]; Day 39, docetaxel 10 mg/kg IP) | further results |
| --- | --- | --- | --- | --- | --- | --- | --- | --- | --- | --- | --- | --- | --- | --- | --- | --- | --- | --- | --- | --- | --- |
| CC(=O)O[C@@]12CO[C@@H]1C[C@H](O)[C@@]1(C)C(=O)[C@H](O)C3=C(C)[C@@H](OC(=O)[C@H](O)[C@@H](NC(=O)OC(C)(C)C)c4ccccc4)C[C@@](O)([C@@H](OC(=O)c4ccccc4)[C@H]21)C3(C)C [Docetaxel, (2R,3S)—N-carboxy-3-phenylisoseine,N-tert-butyl ester, 13-ester with 5β-20-epoxy-1,2α,4,7β,10β,13α-hexahydroxytax-11-en-9-one 4-acetate 2-benzoate, trihydrate, reference compound] | 46.3 | 106.8 | 134.7 | 164.8 | 171.7 | 157.4 | 162.7 | 161.6 | 167.0 | −69.5%* | 49.7 | 56.7 | 114.8 | 70.0 | 135.8 | 170.1 | 257.0 | 261.5 | 290.0 | 282.3 | Mean Tumor Volume ([2]; Day 43, docetaxel 10 mg/kg IP): 342.6; Mean Tumor Volume ([2]; Day 46, docetaxel 10 mg/kg IP): 310.2; Mean Tumor Volume ([2]; Day 50, docetaxel 10 mg/kg IP): 343.8; Percent Reduction in Mean Tumor Volumes (observed) [2]: −29.6%; Percent Reduction in Mean Tumor Volumes (observed) ([3]; Taxotere 2.5 mg/kg IP): −1.4%; Mean Tumor Volume [3, 6]: 78.7; Mean Tumor Volume ([3]; Day 8, Taxotere 2.5 mg/kg IP): 130.1; Mean Tumor Volume ([3]; Day 12, Taxotere 2.5 mg/kg IP): 180.9; Mean Tumor Volume ([3]; Day 15, Taxotere 2.5 mg/kg IP): 221.0; Mean Tumor Volume ([3]; Day 19, Taxotere 2.5 mg/kg IP): 270.3; Mean Tumor Volume ([3]; Day 22, Taxotere 2.5 mg/kg IP): 333.9; Mean Tumor Volume ([3]; Day 26, Taxotere 2.5 mg/kg IP): 384.9; Mean Tumor Volume ([3]; Day 29, Taxotere 2.5 mg/kg IP): 450.4; Mean Tumor Volume ([3]; Day 33, Taxotere 2.5 mg/kg IP): 529.6 |
| d(P-thio)([2′-O-(2-methoxyethyl)]m5rU-([2′-O-(2-methoxyethyl)]rG-([2′-O-(2-methoxyethyl)]m5rU-([2′-O-(2-methoxyethyl)]m5rC-([2′-O-(2-methoxyethyl)]rA-T-A-T-T-m5C-m5C-T-G-G-A-([2′-O-(2-methoxyethyl)]m5rU-([2′-O-(2-methoxyethyl)]m5rC-([2′-O-(2-methoxyethyl)]m5rC-([2′-O-(2-methoxyethyl)]m5rU-([2′-O-(2-methoxyethyl)]m5rU) (antisense eT*eG*eT*e[5mC]*eA*dT*dA*dT*dT*d[5mC]*d[5mC]*dT*dG*dG*dA*eT*e[5mC]*e[5mC]*eT*eT) [eIF-4E ASO] | 49.8 | 88.3 | 130.3 | 159.0 | 218.8 | 294.5 | 343.9 | 424.0 | 491.2 | −10.2% | 52.7 | 69.4 | 113.7 | 79.1 | 139.5 | 149.0 | 220.1 | 249.5 | 256.6 | 239.1 | Mean Tumor Volume ([2]; Day 43, docetaxel 10 mg/kg IP): 313.2; Mean Tumor Volume ([2]; Day 46, docetaxel 10 mg/kg IP): 292.3; Mean Tumor Volume ([2]; Day 50, docetaxel 10 mg/kg IP): 404.0; Percent Reduction in Mean Tumor Volumes (observed) [2]: −17.3%; Percent Reduction in Mean Tumor Volumes (observed) ([3]; Taxotere 2.5 mg/kg IP): +16.6%; Mean Tumor Volume [3, 6]: 78.9; Mean Tumor Volume ([3]; Day 8, Taxotere 2.5 mg/kg IP): 129.4; Mean Tumor Volume ([3]; Day 12, Taxotere 2.5 mg/kg IP): 166.6; Mean Tumor Volume ([3]; Day 15, Taxotere 2.5 mg/kg IP): 221.0; Mean Tumor Volume ([3]; Day 19, Taxotere 2.5 mg/kg IP): 268.2; Mean Tumor Volume ([3]; Day 22, Taxotere 2.5 mg/kg IP): 356.3; Mean Tumor Volume ([3]; Day 26, Taxotere 2.5 mg/kg IP): 435.9; Mean Tumor Volume ([3]; Day 29, Taxotere 2.5 mg/kg IP): 574.1; Mean Tumor Volume ([3]; Day 33, Taxotere 2.5 mg/kg IP): 626.2; Effect on mean tumor volume (in words) ([3]; breast cancer model, ASO alone): non-statistically significant increase |

Reference: patent US20140323543A1, “Treatment of Prostate Cancer with eIF4E Antisense Compounds” (priority 2013, published 2014)
